Assay results: ChEMBL document CHEMBL3994622, “Design and synthesis of new RAF kinase-inhibiting antiproliferative quinoline derivatives. Part 2: Diarylurea derivatives” (Eur J Med Chem, 2017)

Tests used:
Assay type in all cases: functional
[1] = system: HL-60(TB); assay: Growth inhibition of human HL-60(TB) cells assessed as cell growth at 0.03 uM incubated for 48 hrs by sulforhodamine B assay relative to control; conditions: HL-60, 48 h, read-out: Activity
[2] = system: OVCAR-8; assay: Growth inhibition of human OVCAR8 cells assessed as cell growth at 3 uM incubated for 48 hrs by sulforhodamine B assay relative to control; conditions: OVCAR-8, 48 h, read-out: Activity
[3] = system: SK-MEL-28; assay: Growth inhibition of human SK-MEL-28 cells assessed as cell growth at 0.3 uM incubated for 48 hrs by sulforhodamine B assay relative to control; conditions: SK-MEL-28, 48 h, read-out: Activity
[4] = system: KM12; assay: Growth inhibition of human KM12 cells assessed as cell growth at 30 uM incubated for 48 hrs by sulforhodamine B assay relative to control; conditions: KM12, 48 h, read-out: Activity
[5] = system: UACC-257; assay: Growth inhibition of human UACC257 cells assessed as cell growth at 3 uM incubated for 48 hrs by sulforhodamine B assay relative to control; conditions: UACC-257, 48 h, read-out: Activity
[6] = system: NCI/ADR-RES; assay: Growth inhibition of human NCI/ADR-RES cells assessed as cell growth at 0.003 uM incubated for 48 hrs by sulforhodamine B assay relative to control; conditions: read-out: Activity
[7] = system: A498; assay: Growth inhibition of human A498 cells assessed as cell growth at 3 uM incubated for 48 hrs by sulforhodamine B assay relative to control; conditions: A498, 48 h, read-out: Activity
[8] = system: MCF7; assay: Growth inhibition of human MCF7 cells assessed as cell growth at 0.03 uM incubated for 48 hrs by sulforhodamine B assay relative to control; conditions: MCF7, 48 h, read-out: Activity
[9] = system: RPMI-8226; assay: Growth inhibition of human RPMI8226 cells assessed as cell growth at 0.03 uM incubated for 48 hrs by sulforhodamine B assay relative to control; conditions: RPMI-8226, 48 h, read-out: Activity
[10] = system: Hs-578T; assay: Growth inhibition of human Hs 578T cells assessed as cell growth at 0.3 uM incubated for 48 hrs by sulforhodamine B assay relative to control; conditions: read-out: Activity
[11] = system: NCI/ADR-RES; assay: Growth inhibition of human NCI/ADR-RES cells assessed as cell growth at 3 uM incubated for 48 hrs by sulforhodamine B assay relative to control; conditions: read-out: Activity
[12] = system: RPMI-8226; assay: Growth inhibition of human RPMI8226 cells assessed as cell growth at 0.3 uM incubated for 48 hrs by sulforhodamine B assay relative to control; conditions: RPMI-8226, 48 h, read-out: Activity
[13] = system: SNB-75; assay: Growth inhibition of human SNB75 cells assessed as cell growth at 0.003 uM incubated for 48 hrs by sulforhodamine B assay relative to control; conditions: SNB-75, 48 h, read-out: Activity
[14] = system: SNB-19; assay: Growth inhibition of human SNB19 cells assessed as cell growth at 0.003 uM incubated for 48 hrs by sulforhodamine B assay relative to control; conditions: SNB-19, 48 h, read-out: Activity
[15] = system: TK-10; assay: Growth inhibition of human TK10 cells assessed as cell growth at 10 uM incubated for 48 hrs by sulforhodamine B assay relative to control; conditions: TK-10, 48 h, read-out: Activity
[16] = system: HL-60(TB); assay: Growth inhibition of human HL-60(TB) cells assessed as cell growth at 10 uM incubated for 48 hrs by sulforhodamine B assay relative to control; conditions: HL-60, 48 h, read-out: Activity
[17] = system: OVCAR-3; assay: Growth inhibition of human OVCAR3 cells assessed as cell growth at 1 uM incubated for 48 hrs by sulforhodamine B assay relative to control; conditions: OVCAR-3, 48 h, read-out: Activity
[18] = system: SF-295; assay: Growth inhibition of human SF295 cells assessed as cell growth at 100 uM incubated for 48 hrs by sulforhodamine B assay relative to control; conditions: SF-295, 48 h, read-out: Activity
[19] = system: RXF 393; assay: Growth inhibition of human RXF393 cells assessed as cell growth at 1 uM incubated for 48 hrs by sulforhodamine B assay relative to control; conditions: RXF 393, 48 h, read-out: Activity
[20] = system: HCT-116; assay: Growth inhibition of human HCT116 cells assessed as cell growth at 10 uM incubated for 48 hrs by sulforhodamine B assay relative to control; conditions: HCT-116, 48 h, read-out: Activity
[21] = system: EKVX; assay: Growth inhibition of human EKVX cells assessed as cell growth at 0.1 uM incubated for 48 hrs by sulforhodamine B assay relative to control; conditions: read-out: Activity
[22] = system: SN12C; assay: Growth inhibition of human SN12C cells assessed as cell growth at 0.01 uM incubated for 48 hrs by sulforhodamine B assay relative to control; conditions: read-out: Activity
[23] = system: SW-620; assay: Growth inhibition of human SW620 cells assessed as cell growth at 0.1 uM incubated for 48 hrs by sulforhodamine B assay relative to control; conditions: SW-620, 48 h, read-out: Activity
[24] = system: KM12; assay: Growth inhibition of human KM12 cells assessed as cell growth at 0.1 uM incubated for 48 hrs by sulforhodamine B assay relative to control; conditions: KM12, 48 h, read-out: Activity
[25] = system: HCT-15; assay: Growth inhibition of human HCT15 cells assessed as cell growth at 10 uM incubated for 48 hrs by sulforhodamine B assay relative to control; conditions: HCT-15, 48 h, read-out: Activity
[26] = system: NCI-H226; assay: Growth inhibition of human NCI-H226 cells assessed as cell growth at 0.1 uM incubated for 48 hrs by sulforhodamine B assay relative to control; conditions: NCI-H226, 48 h, read-out: Activity
[27] = system: SF-295; assay: Growth inhibition of human SF295 cells assessed as cell growth at 0.01 uM incubated for 48 hrs by sulforhodamine B assay relative to control; conditions: SF-295, 48 h, read-out: Activity
[28] = system: KM12; assay: Growth inhibition of human KM12 cells assessed as cell growth at 10 uM incubated for 48 hrs by sulforhodamine B assay relative to control; conditions: KM12, 48 h, read-out: Activity
[29] = system: DU-145; assay: Growth inhibition of human DU145 cells assessed as cell growth at 100 uM incubated for 48 hrs by sulforhodamine B assay relative to control; conditions: DU-145, 48 h, read-out: Activity
[30] = system: NCI/ADR-RES; assay: Growth inhibition of human NCI/ADR-RES cells assessed as cell growth at 0.01 uM incubated for 48 hrs by sulforhodamine B assay relative to control; conditions: read-out: Activity
[31] = system: OVCAR-5; assay: Growth inhibition of human OVCAR5 cells assessed as cell growth at 0.1 uM incubated for 48 hrs by sulforhodamine B assay relative to control; conditions: OVCAR-5, 48 h, read-out: Activity
[32] = system: SNB-75; assay: Growth inhibition of human SNB75 cells assessed as cell growth at 1 uM incubated for 48 hrs by sulforhodamine B assay relative to control; conditions: SNB-75, 48 h, read-out: Activity
[33] = system: SF-295; assay: Growth inhibition of human SF295 cells assessed as cell growth at 10 uM incubated for 48 hrs by sulforhodamine B assay relative to control; conditions: SF-295, 48 h, read-out: Activity
[34] = system: HCC 2998; assay: Growth inhibition of human HCC2998 cells assessed as cell growth at 0.1 uM incubated for 48 hrs by sulforhodamine B assay relative to control; conditions: HCC 2998, 48 h, read-out: Activity
[35] = system: HOP-92; assay: Growth inhibition of human HOP92 cells assessed as cell growth at 100 uM incubated for 48 hrs by sulforhodamine B assay relative to control; conditions: HOP-92, 48 h, read-out: Activity

SMILES	growth at 0.03 µM [1]	growth at 3 µM [2]	growth at 0.3 µM [3]	growth at 30 µM [4]	growth at 3 µM [5]	growth at 0.003 µM [6]	growth at 3 µM [7]	growth at 0.03 µM [8]	growth at 0.03 µM [9]	growth at 0.3 µM [10]	growth at 3 µM [11]	growth at 0.3 µM [12]	growth at 0.003 µM [13]	growth at 0.003 µM [14]	growth at 10 µM [15]	growth at 10 µM [16]	growth at 1 µM [17]	growth at 100 µM [18]	growth at 1 µM [19]	growth at 10 µM [20]	also measured
COc1cc2cc(Oc3ccc(NC(=O)Nc4ccc(Cl)c(C(F)(F)F)c4)cc3)c(C)nc2cc1OC	97%	6%	91%	-84%	-13%	104%	1%	97%	98%	84%	8%	85%	90%	94%							
COc1cc2cc(Oc3ccc(NC(=O)Nc4cc(C(F)(F)F)cc(C(F)(F)F)c4)cc3)c(C)nc2cc1OC															13.2%	-41%	27%	-84%	93%	-84%	growth at 0.1 µM [21]: 89%; growth at 0.01 µM [22]: 96%; growth at 0.1 µM [23]: 100%; growth at 0.1 µM [24]: 95%; growth at 10 µM [25]: -91%; growth at 0.1 µM [26]: 101%; growth at 0.01 µM [27]: 88%; growth at 10 µM [28]: -75%; growth at 100 µM [29]: -96%; growth at 0.01 µM [30]: 101%; growth at 0.1 µM [31]: 92%; growth at 1 µM [32]: 75%; growth at 10 µM [33]: -76%; growth at 0.1 µM [34]: 107%; growth at 100 µM [35]: -58%
COc1cc2cc(Oc3ccc(NC(=O)Nc4ccc(Cl)c(Cl)c4)cc3)c(C)nc2cc1OC																-22%	94%	-56%	104%	2%	growth at 0.1 µM [21]: 93%; growth at 0.01 µM [22]: 93%; growth at 0.1 µM [23]: 101%; growth at 0.1 µM [24]: 104%; growth at 10 µM [25]: 19%; growth at 0.1 µM [26]: 107%; growth at 0.01 µM [27]: 88%; growth at 10 µM [28]: 8%; growth at 100 µM [29]: -64%; growth at 0.01 µM [30]: 101%; growth at 0.1 µM [31]: 104%; growth at 1 µM [32]: 83%; growth at 10 µM [33]: -22%; growth at 0.1 µM [34]: 101%; growth at 100 µM [35]: -100%
Cc1nc2cc(O)c(O)cc2cc1Oc1ccc(NC(=O)Nc2ccc(Cl)c(Cl)c2)cc1	106%	66%	87%	-1%	87%	100%	79%	89%	98%	91%	85%	97%	80%	94%	85.3%						
